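Results reflect a 48-hour exposure of cells in 96-well plates to compound at five concentrations. GI50: concentration for 50% inhibition of growth. Definition used: TGI = concentration required for complete inhibition of growth.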
How the values were obtained:
Assay in all cases: NCI anticancer screen, dose series, 48 h; in the data active = GI50 below about 0.43 µM; inactive = the rest
NCI/ADR-RES ovarian = test system: NCI/ADR-RES ovarian
SF-539 CNS = test system: SF-539 CNS
UACC-257 melanoma = test system: UACC-257 melanoma
OVCAR-8 ovarian = test system: OVCAR-8 ovarian
NCI-H522 lung = test system: NCI-H522 lung
HCT-116 colon = test system: HCT-116 colon
SK-MEL-5 melanoma = test system: SK-MEL-5 melanoma
NCI-H460 lung = test system: NCI-H460 lung
ACHN renal = test system: ACHN renal
MDA-MB-231 breast = test system: MDA-MB-231 breast
SF-268 CNS = test system: SF-268 CNS
SR leukemia = test system: SR leukemia
HCC-2998 colon = test system: HCC-2998 colon
OVCAR-5 ovarian = test system: OVCAR-5 ovarian
M14 melanoma = test system: M14 melanoma
COLO 205 colon = test system: COLO 205 colon
LOX IMVI melanoma = test system: LOX IMVI melanoma
SW-620 colon = test system: SW-620 colon
SK-MEL-2 melanoma = test system: SK-MEL-2 melanoma
RXF 393 renal = test system: RXF 393 renal
OVCAR-4 ovarian = test system: OVCAR-4 ovarian
T-47D breast = test system: T-47D breast
UO-31 renal = test system: UO-31 renal
U251 CNS = test system: U251 CNS
SK-OV-3 ovarian = test system: SK-OV-3 ovarian
UACC-62 melanoma = test system: UACC-62 melanoma
SNB-75 CNS = test system: SNB-75 CNS
NCI-H226 lung = test system: NCI-H226 lung
CCRF-CEM leukemia = test system: CCRF-CEM leukemia
SNB-19 CNS = test system: SNB-19 CNS
A549 NSCLC = test system: A549 NSCLC
HOP-62 NSCLC = test system: HOP-62 NSCLC
MOLT-4 leukemia = test system: MOLT-4 leukemia
HT29 colon = test system: HT29 colon
NCI-H23 lung = test system: NCI-H23 lung
IGROV1 ovarian = test system: IGROV1 ovarian
SF-295 CNS = test system: SF-295 CNS
DU-145 prostate = test system: DU-145 prostate
MALME-3M melanoma = test system: MALME-3M melanoma
HCT-15 colon = test system: HCT-15 colon
HS 578T breast = test system: HS 578T breast
K-562 leukemia = test system: K-562 leukemia
PC-3 prostate = test system: PC-3 prostate
CAKI-1 renal = test system: CAKI-1 renal
HL-60(TB) leukemia = test system: HL-60(TB) leukemia
MCF7 breast = test system: MCF7 breast
KM12 colon = test system: KM12 colon
SK-MEL-28 melanoma = test system: SK-MEL-28 melanoma
MDA-MB-435 = test system: MDA-MB-435
SN12C renal = test system: SN12C renal
RPMI-8226 leukemia = test system: RPMI-8226 leukemia
BT-549 breast = test system: BT-549 breast
OVCAR-3 ovarian = test system: OVCAR-3 ovarian
786-0 renal = test system: 786-0 renal
HOP-92 NSCLC = test system: HOP-92 NSCLC
EKVX NSCLC = test system: EKVX NSCLC

COc1cc(Cl)cc(-c2nn(-c3cccc(NC(=O)c4cccc(C(F)(F)F)c4)c3)cc2-c2ccncc2)c1
inactive: GI50 (NCI/ADR-RES ovarian) 5.37 µM | GI50 (SF-539 CNS) > 100 µM | GI50 (UACC-257 melanoma) > 100 µM | GI50 (OVCAR-8 ovarian) 6.88 µM | GI50 (NCI-H522 lung) 1.99 µM | GI50 (HCT-116 colon) 3.17 µM | GI50 (SK-MEL-5 melanoma) 5.43 µM | GI50 (NCI-H460 lung) 5.17 µM | GI50 (ACHN renal) 7.21 µM | GI50 (MDA-MB-231 breast) 1.38 µM | GI50 (SF-268 CNS) > 100 µM | GI50 (SR leukemia) 2.48 µM | GI50 (HCC-2998 colon) 6.66 µM | GI50 (OVCAR-5 ovarian) > 100 µM | GI50 (M14 melanoma) 6.09 µM | GI50 (COLO 205 colon) 33.7 µM | GI50 (LOX IMVI melanoma) 15.7 µM | GI50 (SW-620 colon) > 100 µM | GI50 (SK-MEL-2 melanoma) 6.78 µM | GI50 (RXF 393 renal) 1.87 µM | GI50 (OVCAR-4 ovarian) > 100 µM | GI50 (T-47D breast) 4.69 µM | GI50 (UO-31 renal) 2.71 µM | GI50 (U251 CNS) 5.56 µM | GI50 (SK-OV-3 ovarian) > 100 µM | GI50 (UACC-62 melanoma) 8.04 µM | GI50 (SNB-75 CNS) 6.62 µM | GI50 (NCI-H226 lung) > 100 µM | GI50 (CCRF-CEM leukemia) 4.38 µM | GI50 (SNB-19 CNS) > 100 µM | GI50 (A549 NSCLC) 3.62 µM | GI50 (HOP-62 NSCLC) > 100 µM | GI50 (MOLT-4 leukemia) 2.78 µM | GI50 (HT29 colon) 3.37 µM | GI50 (NCI-H23 lung) 6.74 µM | GI50 (IGROV1 ovarian) > 100 µM | GI50 (SF-295 CNS) 3.91 µM | GI50 (DU-145 prostate) > 100 µM | GI50 (MALME-3M melanoma) > 100 µM | GI50 (HCT-15 colon) 3.35 µM | GI50 (HS 578T breast) > 100 µM | GI50 (K-562 leukemia) 4.69 µM | GI50 (PC-3 prostate) 2.71 µM | GI50 (CAKI-1 renal) 3.85 µM | GI50 (HL-60(TB) leukemia) 45.9 µM | GI50 (MCF7 breast) 4.17 µM | GI50 (KM12 colon) 4.53 µM | GI50 (SK-MEL-28 melanoma) > 100 µM | GI50 (MDA-MB-435) > 100 µM | GI50 (SN12C renal) > 100 µM | GI50 (RPMI-8226 leukemia) 3.13 µM | GI50 (BT-549 breast) > 100 µM | GI50 (OVCAR-3 ovarian) 7.69 µM | GI50 (786-0 renal) 16.7 µM
> 100 µM: TGI (NCI/ADR-RES ovarian) | TGI (SF-539 CNS) | TGI (UACC-257 melanoma) | TGI (OVCAR-8 ovarian) | TGI (NCI-H522 lung) | TGI (HCT-116 colon) | TGI (SK-MEL-5 melanoma) | TGI (NCI-H460 lung) | TGI (ACHN renal) | TGI (SF-268 CNS) | TGI (SR leukemia) | TGI (HCC-2998 colon) | TGI (OVCAR-5 ovarian) | TGI (M14 melanoma) | TGI (COLO 205 colon) | TGI (LOX IMVI melanoma) | TGI (SW-620 colon) | TGI (SK-MEL-2 melanoma) | TGI (RXF 393 renal) | TGI (OVCAR-4 ovarian) | TGI (T-47D breast) | TGI (UO-31 renal) | TGI (U251 CNS) | TGI (SK-OV-3 ovarian) | TGI (UACC-62 melanoma) | TGI (SNB-75 CNS) | TGI (NCI-H226 lung) | TGI (CCRF-CEM leukemia) | TGI (SNB-19 CNS) | TGI (A549 NSCLC) | TGI (HOP-62 NSCLC) | TGI (MOLT-4 leukemia) | TGI (HT29 colon) | TGI (NCI-H23 lung) | TGI (IGROV1 ovarian) | TGI (SF-295 CNS) | TGI (DU-145 prostate) | TGI (MALME-3M melanoma) | TGI (HCT-15 colon) | TGI (HS 578T breast) | TGI (K-562 leukemia) | TGI (PC-3 prostate) | TGI (CAKI-1 renal) | TGI (HL-60(TB) leukemia) | TGI (MCF7 breast) | TGI (KM12 colon) | TGI (SK-MEL-28 melanoma) | TGI (MDA-MB-435) | TGI (SN12C renal) | TGI (RPMI-8226 leukemia) | TGI (BT-549 breast) | TGI (OVCAR-3 ovarian) | TGI (786-0 renal)
9.97 µM: TGI (MDA-MB-231 breast)

Oc1cc2ccccc2cc1-c1n[nH]c(=S)n1CCc1ccccc1
51.9 µM: TGI (HCT-15 colon)
39.6 µM: TGI (UACC-62 melanoma)
39 µM: TGI (U251 CNS)
52.7 µM: TGI (UO-31 renal)
inactive: GI50 (NCI/ADR-RES ovarian) 21.1 µM | GI50 (SF-539 CNS) 21.3 µM | GI50 (UACC-257 melanoma) 30 µM | GI50 (OVCAR-8 ovarian) 35.5 µM | GI50 (NCI-H522 lung) 15.3 µM | GI50 (HOP-92 NSCLC) 55.7 µM | GI50 (SK-MEL-5 melanoma) 19.4 µM | GI50 (NCI-H460 lung) 20.2 µM | GI50 (ACHN renal) 22.4 µM | GI50 (MDA-MB-231 breast) 22.1 µM | GI50 (SF-268 CNS) 19.7 µM | GI50 (SR leukemia) > 100 µM | GI50 (OVCAR-5 ovarian) 24.1 µM | GI50 (M14 melanoma) 15.8 µM | GI50 (COLO 205 colon) 35.1 µM | GI50 (EKVX NSCLC) 33.7 µM | GI50 (LOX IMVI melanoma) 22.1 µM | GI50 (SW-620 colon) 36.2 µM | GI50 (SK-MEL-2 melanoma) 16.3 µM | GI50 (RXF 393 renal) 30.7 µM | GI50 (OVCAR-4 ovarian) 42.2 µM | GI50 (T-47D breast) 43.6 µM | GI50 (UO-31 renal) 20.3 µM | GI50 (U251 CNS) 20.3 µM | GI50 (SK-OV-3 ovarian) 25.9 µM | GI50 (UACC-62 melanoma) 21.2 µM | GI50 (SNB-75 CNS) 73.2 µM | GI50 (NCI-H226 lung) 19.9 µM | GI50 (SNB-19 CNS) 36.7 µM | GI50 (A549 NSCLC) 37.3 µM | GI50 (HOP-62 NSCLC) 25.7 µM | GI50 (MOLT-4 leukemia) > 100 µM | GI50 (HT29 colon) 35.7 µM | GI50 (NCI-H23 lung) 16.5 µM | GI50 (IGROV1 ovarian) 14.8 µM | GI50 (SF-295 CNS) 42.3 µM | GI50 (DU-145 prostate) 37.1 µM | GI50 (MALME-3M melanoma) 26.7 µM | GI50 (HCT-15 colon) 22.5 µM | GI50 (HS 578T breast) 24.2 µM | GI50 (K-562 leukemia) 68.2 µM | GI50 (PC-3 prostate) 20.6 µM | GI50 (CAKI-1 renal) 30.9 µM | GI50 (HL-60(TB) leukemia) 73.2 µM | GI50 (MCF7 breast) 22.5 µM | GI50 (KM12 colon) 43.2 µM | GI50 (SK-MEL-28 melanoma) 44.8 µM | GI50 (MDA-MB-435) 26.2 µM | GI50 (SN12C renal) 16.7 µM | GI50 (RPMI-8226 leukemia) 18.1 µM | GI50 (BT-549 breast) 18.6 µM | GI50 (OVCAR-3 ovarian) 34.4 µM | GI50 (786-0 renal) 18.3 µM
62.5 µM: TGI (RPMI-8226 leukemia)
44.5 µM: TGI (SF-539 CNS) | TGI (MCF7 breast)
91.7 µM: TGI (MDA-MB-435)
30.3 µM: TGI (IGROV1 ovarian)
32.6 µM: TGI (SN12C renal)
55.3 µM: TGI (NCI-H226 lung)
36.2 µM: TGI (786-0 renal)
57.8 µM: TGI (MDA-MB-231 breast)
79.3 µM: TGI (EKVX NSCLC)
31.3 µM: TGI (NCI-H522 lung)
43.5 µM: TGI (NCI/ADR-RES ovarian) | TGI (PC-3 prostate)
73.9 µM: TGI (CAKI-1 renal)
59 µM: TGI (RXF 393 renal)
38.7 µM: TGI (LOX IMVI melanoma)
43.6 µM: TGI (SK-MEL-5 melanoma) | TGI (HOP-62 NSCLC)
32.2 µM: TGI (M14 melanoma)
69.8 µM: TGI (ACHN renal)
36.1 µM: TGI (NCI-H23 lung)
45.9 µM: TGI (BT-549 breast)
37.2 µM: TGI (SF-268 CNS)
58.9 µM: TGI (MALME-3M melanoma)
94 µM: TGI (OVCAR-3 ovarian)
65.6 µM: TGI (UACC-257 melanoma)
32.8 µM: TGI (SK-MEL-2 melanoma)
> 100 µM: TGI (OVCAR-8 ovarian) | TGI (HOP-92 NSCLC) | TGI (SR leukemia) | TGI (COLO 205 colon) | TGI (SW-620 colon) | TGI (OVCAR-4 ovarian) | TGI (T-47D breast) | TGI (SK-OV-3 ovarian) | TGI (SNB-75 CNS) | TGI (SNB-19 CNS) | TGI (A549 NSCLC) | TGI (MOLT-4 leukemia) | TGI (SF-295 CNS) | TGI (DU-145 prostate) | TGI (K-562 leukemia) | TGI (HL-60(TB) leukemia) | TGI (KM12 colon) | TGI (SK-MEL-28 melanoma)
91.8 µM: TGI (HT29 colon)
57 µM: TGI (HS 578T breast)
53.4 µM: TGI (OVCAR-5 ovarian)
35.3 µM: TGI (NCI-H460 lung)
